Measured values as given in patent publication US5420157A, “Inhibitors of farnesyl protein transferase or prodrugs thereof” (Merck & Co., Inc., priority 1991, dated 1995).
Where a name gives a salt, the structure may show the parent alone.

Legend:
[1] = target: T1, Farnesyl-protein transferase (FTase) (Bos taurus, UniProt P29702+P49355); assay: Inhibition of Ras farnesylation in vitro (FTase inhibition, Ras-CVLS and [3H]FPP); format: biochemical, bovine; settings: for IC50: Ras-CVLS 3.5 μM, 0.25 μM [3H]FPP, partially purified FTase from bovine brain, assay buffer pH 7.5
T1 construct: Farnesyl-protein transferase (FTase) from bovine brain; from tissue; host or cells: bovine brain, partially purified (DEAE-Sephacel, N-octyl agarose, mono Q)
Procedure: The intrinsic farnesyl-protein transferase (FTase) activity of representative compounds of this invention was measured by the assay as described below:
Farnesyl-protein transferase (FTase) from bovine brain was chromatographed on DEAE-Sephacel (Pharmacia, 0-0.8M NaCl gradient elution), N-octyl agarose (Sigma, 0-0.6M NaCl gradient elution), and a mono Q HPLC column (Pharmacia, 0-0.3M NaCl gradient). Ras-CVLS (Cys-Val-Leu-Ser) at 3.5 μM, 0.25 μM [^3 H]FPP, and the indicated compounds were incubated with this partially purified enzyme preparation. The FTase inhibition data presented below is a measurement of the ability of the test compound to inhibit Ras farnesylation in vitro.

[2] = Equilibrium between diacid (10) and anhydride (9) in solution, pH dependence (UV); format: physicochemical; settings: for Predominant form in anhydride/diacid equilibrium: in solution, pH dependent
From the text: The equilibrium between diacid (10) and anhydride (9) in a solution is pH dependent. […] However, when basified with dil NaOH, this maximum shifted to ^λ max 243 nm. This shift is clear evidence of opening of the anhydride into the diacid.
(§1) The latter band under went a hypsochromic shift to […] after addition of dil NaOH.

[3] = Reaction of anhydride (9) with CH3OH; format: physicochemical; settings: methanolic solution
From the text: as §1

| SMILES | IC50 [1] [µM] | Form present under assay conditions ([2]; CH3OH-HEPES buffer (7:5), pH 7.5, UV maximum 243 nm) | Predominant form in anhydride/diacid equilibrium [2] | Reactivity with CH3OH [3] | RAS farnesyl transferase inhibitory activity of trapped diacid salt ([1]; open diacid form (10) trapped as diisopropylethylamine salt) |
| --- | --- | --- | --- | --- | --- |
| CCCCCCCCCCCCCCC1=C(C)C(=O)OC1=O [Compound (9)] | 0.046 | exits in the open dicarboxylate form of compound (10) | predominates when the solution is acidic | reacts slowly with CH3 OH |  |
| CCCCCCCCCCCCCC/C(C(=O)O)=C(\C)C(=O)O [Compound (10)] | 0.046 |  | predominates when the solution is basic |  |  |
| CCCCCCCCCCCCCC/C(C(=O)O)=C(\C)C(=O)O [diisopropylethylamine salt] |  |  |  |  | without any loss of RAS farnesyl transferase inhibitory activity |
